Measured values reported in PMC10327491 (Nature microbiology, 2022).

Molecular target: T1, BtSULT (Bacteroides thetaiotaomicron, UniProt Q8AAP8)
T1 sequence (Q8AAP8 1-368): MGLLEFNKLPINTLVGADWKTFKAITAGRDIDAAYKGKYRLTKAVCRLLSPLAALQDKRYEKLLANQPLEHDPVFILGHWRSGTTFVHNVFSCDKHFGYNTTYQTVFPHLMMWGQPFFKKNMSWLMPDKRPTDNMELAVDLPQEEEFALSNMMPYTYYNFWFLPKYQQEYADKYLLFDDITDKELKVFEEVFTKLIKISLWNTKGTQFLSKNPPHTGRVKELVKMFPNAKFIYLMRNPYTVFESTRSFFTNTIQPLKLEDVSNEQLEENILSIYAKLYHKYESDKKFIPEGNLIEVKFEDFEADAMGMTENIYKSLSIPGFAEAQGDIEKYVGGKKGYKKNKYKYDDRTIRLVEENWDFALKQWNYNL
Assay: UPLC-MS of cholesterol sulfate formation
Assay type: biochemical
Details: 100 uM PAPS, 50 uM cholesterol acceptor, pH 7, 37 °C; sulfonate donor

Compound: Nc1ncnc2c1ncn2[C@@H]1O[C@H](COP(=O)(O)OS(=O)(=O)O)[C@@H](OP(=O)(O)O)[C@H]1O [adenosine 3'-phosphate-5'-phosphosulfate]
- UPLC-MS of cholesterol sulfate formation: BtSULT encodes a sulfotransferase that utilizes PAPS to sulfonate Ch
